Reference: ChEMBL document CHEMBL4145497, “Discovery of 2-aminothiazolyl berberine derivatives as effectively antibacterial agents toward clinically drug-resistant Gram-negative Acinetobacter baumanii” (Eur J Med Chem, 2018)

Key:
Assay type in all cases: functional
Aspergillus flavus = assay: Antifungal activity against Aspergillus flavus ATCC 204304 by CLSI two fold serial dilution method
Escherichia coli [1] = assay: Antibacterial activity against Escherichia coli DH52 after 18 to 24 hrs by CLSI two fold serial dilution method
Staphylococcus aureus [2] = assay: Antibacterial activity against Staphylococcus aureus ATCC 25923 after 18 to 24 hrs by CLSI two fold serial dilution method
Aspergillus fumigatus = assay: Antifungal activity against drug-resistant Aspergillus fumigatus by CLSI two fold serial dilution method
Escherichia coli [3] = assay: Antibacterial activity against drug-resistant Escherichia coli after 18 to 24 hrs by CLSI two fold serial dilution method
Staphylococcus aureus [4] = assay: Antibacterial activity against methicillin-resistant Staphylococcus aureus N315 after 18 to 24 hrs by CLSI two fold serial dilution method
Acinetobacter baumannii = assay: Antibacterial activity against drug-resistant Acinetobacter baumannii after 18 to 24 hrs by CLSI two fold serial dilution method
Pseudomonas aeruginosa [5] = assay: Antibacterial activity against drug-resistant Pseudomonas aeruginosa after 18 to 24 hrs by CLSI two fold serial dilution method
Cyberlindnera jadinii = assay: Antifungal activity against Candida utilis ATCC 9950 by CLSI two fold serial dilution method; settings: Williopsis jadinii
Klebsiella pneumoniae = assay: Antibacterial activity against drug-resistant Klebsiella pneumoniae after 18 to 24 hrs by CLSI two fold serial dilution method
Micrococcus luteus = assay: Antibacterial activity against Micrococcus luteus ATCC 4698 after 18 to 24 hrs by CLSI two fold serial dilution method
Bacillus subtilis = assay: Antibacterial activity against Bacillus subtilis ATCC 21216 after 18 to 24 hrs by CLSI two fold serial dilution method
Candida albicans [6] = assay: Antifungal activity against drug-resistant Candida albicans by CLSI two fold serial dilution method
Enterococcus faecalis = assay: Antibacterial activity against drug-resistant Enterococcus faecalis after 18 to 24 hrs by CLSI two fold serial dilution method
Saccharomyces cerevisiae = assay: Antifungal activity against Saccharomyces cerevisiae ATCC 9763 by CLSI two fold serial dilution method
Pichia norvegensis = assay: Antifungal activity against Candida mycoderma ATCC 96918 by CLSI two fold serial dilution method
Candida albicans [7] = assay: Antifungal activity against Candida albicans ATCC 76615 by CLSI two fold serial dilution method
Pseudomonas aeruginosa [8] = assay: Antibacterial activity against Pseudomonas aeruginosa ATCC 27853 after 18 to 24 hrs by CLSI two fold serial dilution method
Candida tropicalis = assay: Antifungal activity against drug-resistant Candida tropicalis by CLSI two fold serial dilution method
Candida parapsilosis = assay: Antifungal activity against Candida parapsilosis ATCC 22019 by CLSI two fold serial dilution method; settings: Lodderomyces parapsilosis

Measured: MIC

CCCCOc1c(OC)cc(/C=N/NC(N)=S)c2c1CN1CCc3cc4c(cc3C1C2)OCO4 (stereo not given)
530 µM: Saccharomyces cerevisiae
70 µM: Acinetobacter baumannii
130 µM: Staphylococcus aureus [2] | Staphylococcus aureus [4] | Cyberlindnera jadinii | Klebsiella pneumoniae | Candida albicans [6] | Enterococcus faecalis | Pichia norvegensis | Candida albicans [7] | Pseudomonas aeruginosa [8] | Candida parapsilosis
270 µM: Aspergillus flavus | Escherichia coli [1] | Aspergillus fumigatus | Escherichia coli [3] | Pseudomonas aeruginosa [5] | Micrococcus luteus | Bacillus subtilis | Candida tropicalis

COc1cc(/C=N/NC(N)=S)c2c(c1OCc1ccc([N+](=O)[O-])cc1)CN1CCc3cc4c(cc3C1C2)OCO4 (stereo not given)
110 µM: Escherichia coli [1] | Escherichia coli [3] | Micrococcus luteus | Candida parapsilosis
230 µM: Staphylococcus aureus [2] | Staphylococcus aureus [4] | Pseudomonas aeruginosa [5] | Candida albicans [6] | Enterococcus faecalis | Pichia norvegensis | Candida albicans [7] | Pseudomonas aeruginosa [8]
460 µM: Aspergillus flavus | Aspergillus fumigatus | Acinetobacter baumannii | Cyberlindnera jadinii | Klebsiella pneumoniae | Bacillus subtilis | Saccharomyces cerevisiae | Candida tropicalis

COc1cc(/C=N/NC(N)=S)c2c(c1OCc1ccccc1Cl)CN1CCc3cc4c(cc3C1C2)OCO4 (stereo not given)
930 µM: Saccharomyces cerevisiae
230 µM: Escherichia coli [1] | Escherichia coli [3] | Cyberlindnera jadinii | Klebsiella pneumoniae | Micrococcus luteus | Bacillus subtilis | Candida albicans [6] | Enterococcus faecalis | Pichia norvegensis | Candida albicans [7] | Candida parapsilosis
470 µM: Aspergillus flavus | Pseudomonas aeruginosa [5] | Pseudomonas aeruginosa [8] | Candida tropicalis
4 µM: Aspergillus fumigatus | Acinetobacter baumannii
120 µM: Staphylococcus aureus [2] | Staphylococcus aureus [4]

COc1cc(/C=N/NC(N)=S)c2c(c1O)CN1CCc3cc4c(cc3C1C2)OCO4 (stereo not given)
9 µM: Candida parapsilosis
600 µM: Aspergillus flavus | Escherichia coli [3] | Cyberlindnera jadinii
150 µM: Staphylococcus aureus [2] | Aspergillus fumigatus | Staphylococcus aureus [4] | Acinetobacter baumannii | Pseudomonas aeruginosa [5] | Klebsiella pneumoniae | Candida albicans [7] | Pseudomonas aeruginosa [8]
300 µM: Escherichia coli [1] | Micrococcus luteus | Bacillus subtilis | Candida albicans [6] | Enterococcus faecalis | Saccharomyces cerevisiae | Pichia norvegensis | Candida tropicalis

COc1cc(/C=N/NC(N)=S)c2c(c1OCc1ccc(Cl)cc1)CN1CCc3cc4c(cc3C1C2)OCO4 (stereo not given)
470 µM: Aspergillus flavus | Aspergillus fumigatus | Cyberlindnera jadinii | Bacillus subtilis | Saccharomyces cerevisiae
120 µM: Klebsiella pneumoniae
7 µM: Candida parapsilosis
230 µM: Escherichia coli [1] | Staphylococcus aureus [2] | Escherichia coli [3] | Staphylococcus aureus [4] | Acinetobacter baumannii | Pseudomonas aeruginosa [5] | Micrococcus luteus | Candida albicans [6] | Enterococcus faecalis | Pichia norvegensis | Candida albicans [7] | Pseudomonas aeruginosa [8] | Candida tropicalis

CCCCCCCCCCCCOc1c(OC)cc(/C=N/NC(N)=S)c2c1CN1CCc3cc4c(cc3C1C2)OCO4 (stereo not given)
220 µM: Enterococcus faecalis | Saccharomyces cerevisiae | Pichia norvegensis | Candida parapsilosis
50 µM: Candida tropicalis
430 µM: Aspergillus flavus | Cyberlindnera jadinii | Klebsiella pneumoniae | Bacillus subtilis
110 µM: Escherichia coli [1] | Staphylococcus aureus [2] | Escherichia coli [3] | Staphylococcus aureus [4] | Pseudomonas aeruginosa [5] | Micrococcus luteus | Candida albicans [6] | Candida albicans [7] | Pseudomonas aeruginosa [8]
7 µM: Aspergillus fumigatus | Acinetobacter baumannii
